Laboratory results reported in US12637478B2, “Compound, preparation method thereof, and antibiotic composition comprising same” (priority 2020, dated 2026).
In brackets after ≈: the same amount, converted by molar mass. Read-outs that look alike come from different tables or passages of the source.

Tests used:
[1] = tested on: S. epidermis; assay: MIC by broth microdilution (aerobic pathogens), test strain 5; assay type: cell-based; settings: Staphylococcus epidermidis
Description: (§1) The antibacterial activity of the compounds of Examples 1 to 48 of the present invention against aerobic pathogens were evaluated by measuring the minimum concentration of the antibiotic capable of inhibiting bacterial growth by 90% compared to the growth of the non-drug treated control group. MIC was measured by the broth microdilution method based on CLSI standards [Reference: Clinical and Laboratory Standards Institute Document. (2000) Methods for Dilution Antimicrobial Susceptibility Test for Bacteria that Grow Aerobically-Fifth Edition: M7-A5. CLSI, Villanova, PA].
(§2) All 13 strains such as methicillin susceptible Staphylococcus aureus (MSSA), methicillin resistant Staphylococcus aureus (MRSA), Vancomycin resistant Staphylococcus aureus (VRSA), Staphylococcus epidermidis, methicillin resistant Staphylococcus epidermidis, Enterococcus faecalis, Vancomycin resistant Enterococcus faecalis, Enterococcus faecium, Vancomycin resistant Enterococcus faecium were used.

[2] = tested on: S. epidermis^MR; assay: MIC by broth microdilution (aerobic pathogens), test strain 6; assay type: cell-based, Methicillin resistant Staphylococcus epidermidis; settings: Staphylococcus epidermidis; test strain 6, S. epidermis^MR (methicillin resistant); read-out: MIC
Description: as §1, §2

[3] = tested on: E. faecalis^LinR; assay: MIC by broth microdilution (aerobic pathogens), test strain 9; assay type: cell-based, Linezolid resistant Enterococcus faecalis; settings: Enterococcus faecalis
Description: as §1, §2

[4] = tested on: S. aureus^MS; assay: MIC by broth microdilution (aerobic pathogens), test strain 2; assay type: cell-based; settings: Staphylococcus aureus
Description: as §1, §2

[5] = tested on: S. aureus^MS; assay: MIC by broth microdilution (aerobic pathogens), test strain 1; assay type: cell-based; settings: Staphylococcus aureus
Description: as §1, §2

[6] = tested on: E. faecalis; assay: MIC by broth microdilution (aerobic pathogens), test strain 7; assay type: cell-based; settings: Enterococcus faecalis; test strain 7, E. faecalis; read-out: MIC
Description: as §1, §2

[7] = tested on: E. faecalis^VanA; assay: MIC by broth microdilution (aerobic pathogens), test strain 8; assay type: cell-based, Vancomycin resistant Enterococcus faecalis; settings: Enterococcus faecalis; test strain 8, E. faecalis^VanA (vancomycin resistant); read-out: MIC
Description: as §1, §2

[8] = tested on: C. difficile 161; assay: MIC by agar dilution against Clostridioides difficile, test strain 16; assay type: cell-based; settings: test strain 16, C. difficile 161, anaerobic, agar dilution, read-out: MIC
[9] = tested on: C. difficile 9689; assay: MIC by agar dilution against Clostridioides difficile, test strain 13; assay type: cell-based; settings: test strain 13, C. difficile 9689, anaerobic, agar dilution, read-out: MIC
[10] = tested on: C. difficile 181; assay: MIC by agar dilution against Clostridioides difficile, test strain 19; assay type: cell-based; settings: test strain 19, C. difficile 181, anaerobic, agar dilution, read-out: MIC
[11] = tested on: C. difficile 152; assay: MIC by agar dilution against Clostridioides difficile, test strain 14; assay type: cell-based; settings: test strain 14, C. difficile 152, anaerobic, agar dilution, read-out: MIC
[12] = tested on: C. difficile 173; assay: MIC by agar dilution against Clostridioides difficile, test strain 17; assay type: cell-based; settings: test strain 17, C. difficile 173, anaerobic, agar dilution, read-out: MIC
[13] = tested on: C. difficile 174; assay: MIC by agar dilution against Clostridioides difficile, test strain 18; assay type: cell-based; settings: test strain 18, C. difficile 174, anaerobic, agar dilution, read-out: MIC
[14] = tested on: E. faecium; assay: MIC by broth microdilution (aerobic pathogens), test strain 10; assay type: cell-based; settings: Enterococcus faecium; test strain 10, E. faecium; read-out: MIC
Description: as §1, §2

[15] = tested on: C. difficile 159; assay: MIC by agar dilution against Clostridioides difficile, test strain 15; assay type: cell-based; settings: 159
[16] = test strain 9, E. faecalis^LinR (linezolid resistant), read-out: MIC
[17] = test strain 2, S. aureus^MS, read-out: MIC
[18] = test strain 1, S. aureus^MS, read-out: MIC
[19] = test strain 5, S. epidermis, read-out: MIC

MIC [2] [µg/mL] | MIC [3, 16] [µg/mL] | MIC [4, 17] [µg/mL] | MIC [5, 18] [µg/mL] | MIC [6] [µg/mL] | MIC [9] [µg/mL] | MIC [11] [µg/mL] | MIC [12] [µg/mL] | MIC [13] [µg/mL] | SMILES | also measured
– | – | – | – | – | 0.5 (≈ 0.403 µM) | 1 (≈ 0.807 µM) | 0.5 (≈ 0.403 µM) | 0.125 (≈ 0.101 µM) | C/C=C1\NC(=O)[C@H]([C@@H](C)O)NC(=O)c2csc(n2)-c2ccc(-c3nc(-c4nc(C(=O)NC5(C(=O)NCCCn6cc([N+](=O)[O-])cn6)CC5)cs4)cs3)nc2-c2csc(n2)[C@H]([C@@H](C)O)NC(=O)c2csc(n2)[C@H](C(C)C)NC(=O)c2csc1n2 [Compound 13] | MIC [8]: 0.5 µg/mL (≈ 0.403 µM); MIC [10]: 0.5 µg/mL (≈ 0.403 µM)
1 (≈ 0.798 µM) | 0.5 (≈ 0.399 µM) | 1 (≈ 0.798 µM) | 1 (≈ 0.798 µM) | 1 (≈ 0.798 µM) | – | – | – | – | C/C=C1\NC(=O)[C@H]([C@@H](C)O)NC(=O)c2csc(n2)-c2ccc(-c3nc(-c4nc(C(=O)NC5(C(=O)NCCCN6CCN(C7CC7)CC6)CC5)cs4)cs3)nc2-c2csc(n2)[C@H]([C@@H](C)O)NC(=O)c2csc(n2)[C@H](C(C)C)NC(=O)c2csc1n2 [Compound 15] | MIC [1, 19]: 1 µg/mL (≈ 0.798 µM); MIC [14]: 1 µg/mL (≈ 0.798 µM)
– | – | – | – | – | – | – | – | – | C/C=C1\NC(=O)[C@H]([C@@H](C)O)NC(=O)c2csc(n2)-c2ccc(-c3nc(-c4nc(C(=O)NC5(C(=O)NCCCN6C(=O)CN(CCC(=O)OC)C6=O)CC5)cs4)cs3)nc2-c2csc(n2)[C@H]([C@@H](C)O)NC(=O)c2csc(n2)[C@H](C(C)C)NC(=O)c2csc1n2 [Compound 16] | MIC [3]: 0.25 µg/mL (≈ 0.19 µM); MIC [4]: 0.5 µg/mL (≈ 0.381 µM); MIC [15]: 0.5 µg/mL (≈ 0.381 µM); MIC [5]: 1 µg/mL (≈ 0.762 µM)
– | – | 1 (≈ 0.834 µM) | 1 (≈ 0.834 µM) | – | – | – | – | – | C/C=C1\NC(=O)[C@H]([C@@H](C)O)NC(=O)c2csc(n2)-c2ccc(-c3nc(-c4nc(C(=O)NC5(C(=O)NCCCNC6COC6)CC5)cs4)cs3)nc2-c2csc(n2)[C@H]([C@@H](C)O)NC(=O)c2csc(n2)[C@H](C(C)C)NC(=O)c2csc1n2 [Compound 17] | –
– | – | – | – | – | – | – | – | – | C/C=C1\NC(=O)[C@H]([C@@H](C)O)NC(=O)c2csc(n2)-c2ccc(-c3nc(-c4nc(C(=O)NC5(C(=O)NCCCN6C(=O)CN(CCC(=O)O)C6=O)CC5)cs4)cs3)nc2-c2csc(n2)[C@H]([C@@H](C)O)NC(=O)c2csc(n2)[C@H](C(C)C)NC(=O)c2csc1n2 [Compound 19] | MIC [5]: 0.5 µg/mL (≈ 0.385 µM)
– | 0.5 (≈ 0.417 µM) | 0.125 (≈ 0.104 µM) | 0.25 (≈ 0.208 µM) | – | 0.25 (≈ 0.208 µM) | 0.25 (≈ 0.208 µM) | 0.5 (≈ 0.417 µM) | 0.25 (≈ 0.208 µM) | C/C=C1\NC(=O)[C@H]([C@@H](C)O)NC(=O)c2csc(n2)-c2ccc(-c3nc(-c4nc(C(=O)NC5(C(=O)NCCCCCB(O)O)CC5)cs4)cs3)nc2-c2csc(n2)[C@H]([C@@H](C)O)NC(=O)c2csc(n2)[C@H](C(C)C)NC(=O)c2csc1n2 [Compound 21] | MIC [10]: 1 µg/mL (≈ 0.833 µM)
– | 0.5 (≈ 0.39 µM) | 0.125 (≈ 0.0974 µM) | 0.25 (≈ 0.195 µM) | – | 0.125 (≈ 0.0974 µM) | 0.125 (≈ 0.0974 µM) | 0.5 (≈ 0.39 µM) | 0.125 (≈ 0.0974 µM) | C/C=C1\NC(=O)[C@H]([C@@H](C)O)NC(=O)c2csc(n2)-c2ccc(-c3nc(-c4nc(C(=O)NC5(C(=O)NCCCn6c(=O)[nH]cc([N+](=O)[O-])c6=O)CC5)cs4)cs3)nc2-c2csc(n2)[C@H]([C@@H](C)O)NC(=O)c2csc(n2)[C@H](C(C)C)NC(=O)c2csc1n2 [Compound 22] | –
1 (≈ 0.778 µM) | 1 (≈ 0.778 µM) | 1 (≈ 0.778 µM) | 0.5 (≈ 0.389 µM) | 1 (≈ 0.778 µM) | – | – | – | – | C/C=C1\NC(=O)[C@H]([C@@H](C)O)NC(=O)c2csc(n2)-c2ccc(-c3nc(-c4nc(C(=O)NC5(C(=O)NCCN6CCN(CCC(=O)OC)CC6)CC5)cs4)cs3)nc2-c2csc(n2)[C@H]([C@@H](C)O)NC(=O)c2csc(n2)[C@H](C(C)C)NC(=O)c2csc1n2 [Compound 24] | MIC [1, 19]: 0.25 µg/mL (≈ 0.195 µM)

SMILES | MIC [2] [µg/mL] | MIC [3, 16] [µg/mL] | MIC [4, 17] [µg/mL] | MIC [5, 18] [µg/mL] | MIC [6] [µg/mL] | MIC [9] [µg/mL] | MIC [11] [µg/mL] | MIC [12] [µg/mL] | MIC [13] [µg/mL] | also measured
C/C=C1\NC(=O)[C@H]([C@@H](C)O)NC(=O)c2csc(n2)-c2ccc(-c3nc(-c4nc(C(=O)NC5(C(=O)NCCN6CCOCC6)CC5)cs4)cs3)nc2-c2csc(n2)[C@H]([C@@H](C)O)NC(=O)c2csc(n2)[C@H](C(C)C)NC(=O)c2csc1n2 [Compound 2] | 0.5 (≈ 0.417 µM) | 1 (≈ 0.834 µM) | 1 (≈ 0.834 µM) | 1 (≈ 0.834 µM) | 0.5 (≈ 0.417 µM) | – | – | – | – | MIC [1]: 0.25 µg/mL (≈ 0.208 µM); MIC [7]: 0.5 µg/mL (≈ 0.417 µM)
